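A five-concentration, 48-hour dose response in 96-well plates underlies each endpoint, interpolated linearly between surrounding concentrations. TGI marks complete inhibition of growth.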
Columns and labels:
Experiment in all cases: NCI anticancer screen, dose series, 48 h
HT29 colon = system: HT29 colon
EKVX NSCLC = system: EKVX NSCLC
IGROV1 ovarian = system: IGROV1 ovarian
HOP-62 NSCLC = system: HOP-62 NSCLC
OVCAR-3 ovarian = system: OVCAR-3 ovarian
SNB-78 CNS = system: SNB-78 CNS
SNB-19 CNS = system: SNB-19 CNS
KM20L2 colon = system: KM20L2 colon
NCI-H226 lung = system: NCI-H226 lung
KM12 colon = system: KM12 colon
SF-268 CNS = system: SF-268 CNS
RXF 393 renal = system: RXF 393 renal
MOLT-4 leukemia = system: MOLT-4 leukemia
SNB-75 CNS = system: SNB-75 CNS
SF-295 CNS = system: SF-295 CNS
HL-60(TB) leukemia = system: HL-60(TB) leukemia
SK-MEL-28 melanoma = system: SK-MEL-28 melanoma
HOP-18 NSCLC = system: HOP-18 NSCLC
786-0 renal = system: 786-0 renal
M14 melanoma = system: M14 melanoma
A549 NSCLC = system: A549 NSCLC
NCI-H23 lung = system: NCI-H23 lung
OVCAR-4 ovarian = system: OVCAR-4 ovarian
M19-MEL melanoma = system: M19-MEL melanoma
SK-MEL-5 melanoma = system: SK-MEL-5 melanoma
TK-10 renal = system: TK-10 renal
LOX IMVI melanoma = system: LOX IMVI melanoma
U251 CNS = system: U251 CNS
DMS 114 small cell lung = system: DMS 114 small cell lung
SW-620 colon = system: SW-620 colon
UACC-62 melanoma = system: UACC-62 melanoma
COLO 205 colon = system: COLO 205 colon
DLD-1 colon = system: DLD-1 colon
LXFL 529 NSCLC = system: LXFL 529 NSCLC
SK-OV-3 ovarian = system: SK-OV-3 ovarian
SF-539 CNS = system: SF-539 CNS
SN12C renal = system: SN12C renal
HCT-116 colon = system: HCT-116 colon
RPMI-8226 leukemia = system: RPMI-8226 leukemia
HCC-2998 colon = system: HCC-2998 colon
NCI-H460 lung = system: NCI-H460 lung
NCI-H522 lung = system: NCI-H522 lung
K-562 leukemia = system: K-562 leukemia
DMS 273 small cell lung = system: DMS 273 small cell lung
CCRF-CEM leukemia = system: CCRF-CEM leukemia
OVCAR-8 ovarian = system: OVCAR-8 ovarian
XF 498 CNS = system: XF 498 CNS
A498 renal = system: A498 renal
ACHN renal = system: ACHN renal
CAKI-1 renal = system: CAKI-1 renal
HOP-92 NSCLC = system: HOP-92 NSCLC
OVCAR-5 ovarian = system: OVCAR-5 ovarian
UACC-257 melanoma = system: UACC-257 melanoma
UO-31 renal = system: UO-31 renal
MALME-3M melanoma = system: MALME-3M melanoma
HCT-15 colon = system: HCT-15 colon
SK-MEL-2 melanoma = system: SK-MEL-2 melanoma

COCN1C(=O)C2CC(/C=C/C(N)=O)=CN2C(=O)c2ccccc21 (stereo unspecified) was tested, and the TGI (HT29 colon) was > 100 µM, the TGI (EKVX NSCLC) was > 100 µM and the TGI (IGROV1 ovarian) was > 100 µM. The TGI (HOP-62 NSCLC) was > 100 µM, the TGI (OVCAR-3 ovarian) was > 100 µM and the TGI (SNB-78 CNS) was > 100 µM. The TGI (SNB-19 CNS) was > 100 µM, the TGI (KM20L2 colon) was > 100 µM and the TGI (NCI-H226 lung) was > 100 µM. For the same compound, the TGI (KM12 colon) was > 100 µM, the TGI (SF-268 CNS) was > 100 µM and the TGI (RXF 393 renal) was > 100 µM. The TGI (MOLT-4 leukemia) was > 100 µM, the TGI (SNB-75 CNS) was > 100 µM and the TGI (SF-295 CNS) was > 100 µM. The TGI (HL-60(TB) leukemia) was > 100 µM, the TGI (SK-MEL-28 melanoma) was > 100 µM and the TGI (HOP-18 NSCLC) was > 100 µM. The TGI (786-0 renal) was > 100 µM, the TGI (M14 melanoma) was > 100 µM and the TGI (A549 NSCLC) was > 100 µM. For the same compound, the TGI (NCI-H23 lung) was > 100 µM, the TGI (OVCAR-4 ovarian) was > 100 µM and the TGI (M19-MEL melanoma) was > 100 µM. The TGI (SK-MEL-5 melanoma) was > 100 µM, the TGI (TK-10 renal) was > 100 µM and the TGI (LOX IMVI melanoma) was > 100 µM. For the same compound, the TGI (U251 CNS) was > 100 µM, the TGI (DMS 114 small cell lung) was > 100 µM and the TGI (SW-620 colon) was > 100 µM. For the same compound, the TGI (UACC-62 melanoma) was > 100 µM, the TGI (COLO 205 colon) was > 100 µM and the TGI (DLD-1 colon) was > 100 µM. For the same compound, the TGI (LXFL 529 NSCLC) was > 100 µM, the TGI (SK-OV-3 ovarian) was > 100 µM and the TGI (SF-539 CNS) was > 100 µM. For the same compound, the TGI (SN12C renal) was > 100 µM, the TGI (HCT-116 colon) was > 100 µM and the TGI (RPMI-8226 leukemia) was > 100 µM. The TGI (HCC-2998 colon) was > 100 µM, the TGI (NCI-H460 lung) was > 100 µM and the TGI (NCI-H522 lung) was > 100 µM. The TGI (K-562 leukemia) was > 100 µM, the TGI (DMS 273 small cell lung) was > 100 µM and the TGI (CCRF-CEM leukemia) was > 100 µM. The TGI (OVCAR-8 ovarian) was > 100 µM and the TGI (XF 498 CNS) was > 100 µM.
With Nc1ncnc2c1ncn2C1OC(CSCc2ccc(Cl)cc2)C(O)C1O (stereo unspecified) the TGI (HT29 colon) was > 100 µM, the TGI (EKVX NSCLC) was > 100 µM and the TGI (A498 renal) was 96 µM. For the same compound, the TGI (ACHN renal) was > 100 µM, the TGI (IGROV1 ovarian) was > 100 µM and the TGI (CAKI-1 renal) was 54 µM. The TGI (HOP-62 NSCLC) was 64.3 µM, the TGI (OVCAR-3 ovarian) was > 100 µM and the TGI (SNB-78 CNS) was > 100 µM. For the same compound, the TGI (SNB-19 CNS) was > 100 µM, the TGI (KM20L2 colon) was > 100 µM and the TGI (KM12 colon) was 77.4 µM. The TGI (SF-268 CNS) was > 100 µM, the TGI (RXF 393 renal) was 73.8 µM and the TGI (MOLT-4 leukemia) was 46 µM. The TGI (SNB-75 CNS) was 58.5 µM, the TGI (SF-295 CNS) was > 100 µM and the TGI (HL-60(TB) leukemia) was 62.2 µM. For the same compound, the TGI (HOP-18 NSCLC) was > 100 µM, the TGI (786-0 renal) was > 100 µM and the TGI (M14 melanoma) was 36.7 µM. For the same compound, the TGI (HOP-92 NSCLC) was 32.3 µM, the TGI (A549 NSCLC) was > 100 µM and the TGI (NCI-H23 lung) was 71.5 µM. The TGI (OVCAR-4 ovarian) was > 100 µM, the TGI (M19-MEL melanoma) was > 100 µM and the TGI (SK-MEL-5 melanoma) was 90.9 µM. For the same compound, the TGI (OVCAR-5 ovarian) was > 100 µM, the TGI (TK-10 renal) was > 100 µM and the TGI (LOX IMVI melanoma) was > 100 µM. The TGI (U251 CNS) was > 100 µM, the TGI (DMS 114 small cell lung) was 59.7 µM and the TGI (SW-620 colon) was > 100 µM. For the same compound, the TGI (UACC-62 melanoma) was > 100 µM, the TGI (COLO 205 colon) was > 100 µM and the TGI (DLD-1 colon) was > 100 µM. The TGI (LXFL 529 NSCLC) was 48.3 µM, the TGI (SK-OV-3 ovarian) was > 100 µM and the TGI (SF-539 CNS) was > 100 µM. The TGI (SN12C renal) was > 100 µM, the TGI (HCT-116 colon) was 61.4 µM and the TGI (RPMI-8226 leukemia) was 67.3 µM. The TGI (HCC-2998 colon) was > 100 µM, the TGI (NCI-H460 lung) was > 100 µM and the TGI (UACC-257 melanoma) was > 100 µM. The TGI (UO-31 renal) was 56 µM, the TGI (K-562 leukemia) was > 100 µM and the TGI (MALME-3M melanoma) was > 100 µM. The TGI (DMS 273 small cell lung) was 84.7 µM, the TGI (HCT-15 colon) was > 100 µM and the TGI (CCRF-CEM leukemia) was > 100 µM. For the same compound, the TGI (OVCAR-8 ovarian) was > 100 µM, the TGI (SK-MEL-2 melanoma) was 68.7 µM and the TGI (XF 498 CNS) was 85.9 µM.
COc1cc2cc3c4c(cc(OC)c(OC)c4c2cc1OC)CCN3 was tested, and the TGI (HT29 colon) was 96.2 µM, the TGI (EKVX NSCLC) was > 100 µM and the TGI (ACHN renal) was > 100 µM. For the same compound, the TGI (IGROV1 ovarian) was > 100 µM, the TGI (CAKI-1 renal) was > 100 µM and the TGI (HOP-62 NSCLC) was > 100 µM. For the same compound, the TGI (OVCAR-3 ovarian) was > 100 µM, the TGI (SNB-78 CNS) was > 100 µM and the TGI (SNB-19 CNS) was > 100 µM. The TGI (KM20L2 colon) was 88.5 µM, the TGI (NCI-H226 lung) was > 100 µM and the TGI (KM12 colon) was > 100 µM. For the same compound, the TGI (SF-268 CNS) was > 100 µM, the TGI (RXF 393 renal) was 85.8 µM and the TGI (MOLT-4 leukemia) was > 100 µM. The TGI (SNB-75 CNS) was > 100 µM, the TGI (SF-295 CNS) was > 100 µM and the TGI (HL-60(TB) leukemia) was 42.3 µM. For the same compound, the TGI (SK-MEL-28 melanoma) was > 100 µM, the TGI (HOP-18 NSCLC) was > 100 µM and the TGI (786-0 renal) was > 100 µM. The TGI (M14 melanoma) was > 100 µM, the TGI (HOP-92 NSCLC) was > 100 µM and the TGI (A549 NSCLC) was > 100 µM. For the same compound, the TGI (NCI-H23 lung) was > 100 µM, the TGI (OVCAR-4 ovarian) was > 100 µM and the TGI (M19-MEL melanoma) was 25.6 µM. The TGI (SK-MEL-5 melanoma) was > 100 µM, the TGI (TK-10 renal) was > 100 µM and the TGI (LOX IMVI melanoma) was > 100 µM. The TGI (U251 CNS) was > 100 µM, the TGI (DMS 114 small cell lung) was > 100 µM and the TGI (SW-620 colon) was 51.2 µM. The TGI (UACC-62 melanoma) was 19.5 µM, the TGI (COLO 205 colon) was 63.2 µM and the TGI (DLD-1 colon) was 73.8 µM. The TGI (LXFL 529 NSCLC) was > 100 µM, the TGI (SK-OV-3 ovarian) was > 100 µM and the TGI (SF-539 CNS) was 51.1 µM. For the same compound, the TGI (SN12C renal) was > 100 µM, the TGI (HCT-116 colon) was > 100 µM and the TGI (RPMI-8226 leukemia) was 68 µM. The TGI (HCC-2998 colon) was > 100 µM, the TGI (NCI-H460 lung) was 82.6 µM and the TGI (UACC-257 melanoma) was > 100 µM. The TGI (UO-31 renal) was > 100 µM, the TGI (NCI-H522 lung) was > 100 µM and the TGI (K-562 leukemia) was 81.6 µM. The TGI (MALME-3M melanoma) was > 100 µM, the TGI (DMS 273 small cell lung) was > 100 µM and the TGI (HCT-15 colon) was > 100 µM. The TGI (CCRF-CEM leukemia) was 77.2 µM, the TGI (OVCAR-8 ovarian) was > 100 µM and the TGI (SK-MEL-2 melanoma) was 59.7 µM. The TGI (XF 498 CNS) was > 100 µM.
